# Source: patent US9925153B2, “Therapeutic agents for skin diseases and conditions” (STC.UNM, priority 2013, dated 2018)
# Entries after “also recorded” stand apart in the source; their conditions may differ. Like-named read-outs stand apart in the source and are kept apart here.
# How the values were obtained:
# NF-κB [1] = assay: Inhibition of TNFα-induced activation of NF-κB, 293T/NF-κB-luc luciferase reporter cells; format: cell-based, human; settings: for Activity as inhibitor of TNFα-induced activation of NF-κB in the screen, in words: screened at 15 μM, compared to resveratrol; for IC50: Homo sapiens, HEK-293T
# Protocol: The cells were maintained in Dulbecco's Modified Eagle's Medium (DMEM—high glucose containing 4 mM glutamine) supplemented with 10% fetal bovine serum (FBS), 1 mM sodium pyruvate, 100 units/ml penicillin, 100 μg/ml streptomycin and 100 μg/ml hygromycin (Gibco/Invitrogen, Carlsbad, Calif.) to maintain cell selection. […] The following day cells were fed fresh media 1 hour prior to treatment. […] Plate wells were gently washed with phosphate buffered saline, pH 7.4, and lysed with 1× passive lysis buffer (Promega, Madison, Wis.). The subsequent lysates were analyzed with the Luciferase Assay System (Promega) utilizing a TD-20/20 luminometer (Turner Designs, Sunnyvale, Calif.). The firefly luciferase relative light units were normalized to protein (mg/ml) with BCA™ Protein Assay Kit (Pierce, Rockford, Ill.) and standardized to percent of control (TNFα control).
# COX-2 mRNA = assay: Inhibition of LPS-induced COX-2 mRNA expression in BV-2 microglial cells (qRT-PCR); format: cell-based, mouse; settings: BV-2 cells, LPS 0.2 μg/ml, 24 hours; for Inhibition of LPS-induced COX-2 mRNA, in words: 0.15 μM
# [2] = FRAP anti-oxidant assay (reduction of ferric tripyridyltriazine complex)
# Excerpt: (§1) The total radical-trapping anti-oxidant parameter assay (TRAP assay) measures the ability of an analog to react with the pre-formed radical monocation of 2,2′-azinobis-(3-ethylbenzothiazoline-6-sulfonic acid) (ABTS.^+). The ferric reducing/anti-oxidant power assay (FRAP assay) measures the ability of an analog to reduce a ferric tripyridyltriazine complex.
# (§2) In both colorimetric assays, the vitamin E analog Trolox was used as a control.
# (§3) The anti-oxidant activities of certain stilbene analogs according to the present invention were determined using two standard assays. See, Schlesier, et al., Free Rad Res. 2002; 36:177-187. The total radical-trapping anti-oxidant parameter assay (TRAP assay) measures the ability of an analog to react with the pre-formed radical monocation of 2,2′-azinobis-(3-ethylbenzothiazoline-6-sulfonic acid) (ABTS.^+). See, Re, et al., Free Rad Biol Med, 26:1231-1237 (1999). […] The activities of curcumin and analogs were determined by their abilities to quench the color of the radical cation. […] The ferric complex of 2,4,6-tripyridyl-s-triazine was prepared at acidic pH, and the anti-oxidant activities of curcumin and analogs were determined by their abilities to reduce the ferric complex to the ferrous complex, monitored by formation of the ferrous complex at 593 nm. […]
# [3] = TRAP anti-oxidant assay (quenching of ABTS radical cation)
# Excerpt: as §1, §2, §3
# AP-1 = assay: Inhibition of TPA-induced activation of AP-1, 293T/AP-1-luc luciferase reporter cells; format: cell-based, human; settings: for IC50: Homo sapiens
# Protocol: An AP-1 reporter stable cell line derived from human 293T embryonic kidney cells transfected with a luciferase reporter construct containing three AP-1 binding sites in the promoter (293T/AP-1-luc, Panomics, Inc., Redwood City, Calif.) was grown in a humidified atmosphere at 37° C. in 5% CO2/95% air. The cells were maintained in Dulbecco's Modified Eagle's Medium (DMEM—high glucose containing 4 mM glutamine) supplemented with 10% fetal bovine serum (FBS), 1 mM sodium pyruvate, 100 units/ml penicillin, 100 μg/ml streptomycin and 100 μg/ml hygromycin (Gibco/Invitrogen, Carlsbad, Calif.) to maintain cell selection. One day prior to treatment, the 293T/AP-1-luc cells were plated into 24-well cell culture plates (Costar, Cambridge, Mass.) in the above media without hygromycin. The following day, the cells, which were at approximately 60% confluency, were fed fresh media with or without TPA, 10 ng/ml, (Calbiochem) and immediately treated with curcumin or analog prepared in DMSO stock solutions. The cells were placed again in a humidified atmosphere at 37° C. in 5% CO2/95% air for 24 hours. Plate wells were gently washed with phosphate buffered saline, pH 7.4, and lysed with Ix passive lysis buffer (Promega, Madison, Wis.). The subsequent lysates were analyzed with the Luciferase Assay System (Promega) utilizing a TD-20/20 luminometer (Turner Designs, Sunnyvale, Calif.). The firefly luciferase relative light units were normalized to protein (mg/ml) with BCA Protein Assay Kit (Pierce, Rockford, Ill.) and standardized to percent of control (TPA control).
# [4] = Treatment of cats with inflammatory skin conditions with LD55; format: in vivo, cat; settings: for outcome: Feline
# Excerpt: (§4) Table 3 summarizes the results from consecutive treatment with LD55 of dogs and cats with inflammatory skin conditions, where LD55 was applied as a 1% lotion.
# [5] = Treatment of dogs with inflammatory skin conditions with LD55; format: in vivo, dog
# Excerpt: as §4
# [6] = transgenic model of Alzheimer's disease (ref. 10); cited from earlier work
# NF-κB [7] = settings: literature (ref. 35); cited from earlier work
# [8] = 7 h, 293T/NF-κB-luc cells, TNFα 20 ng/ml, 7 hours, triplicate, read-out: IC50 for inhibition of the TNFα-induced activation of NFκB
smiles,measurement,setting,value
"COc1ccc(/C=C/c2ccccc2)cc1 [4b, (E)-4-Methoxystilbene]","Activity as inhibitor of TNFα-induced activation of NF-κB in the screen, in words",NF-κB [1],especially active
"CN(C)c1ccc(/C=C/c2ccccc2)cc1 [4cc, (E)-4-N,N-Dimethylaminostilbene]","Inhibition of LPS-induced COX-2 mRNA, in words",COX-2 mRNA,almost as effective as 4 μM resveratrol
same,IC50,NF-κB [1]; [8],150 nM
same,"Anti-oxidant activity in the FRAP assay, in words",[2],retained anti-oxidant activity; also recorded: exhibits anti-oxidant activity
same,"Anti-oxidant activity in the TRAP assay, in words",[3],retained anti-oxidant activity; also recorded: exhibits anti-oxidant activity
"COc1cccc(/C=C/c2ccccc2)c1OC [4o, (E)-2,3-Dimethoxystilbene]","Activity as inhibitor of TNFα-induced activation of NF-κB in the screen, in words",NF-κB [1],retained very little activity
"COc1ccc(/C=C/c2ccccc2)cc1O [4s, (E)-3-Hydroxy-4-methoxystilbene]","Activity as inhibitor of TNFα-induced activation of NF-κB in the screen, in words",NF-κB [1],considerably more active than resveratrol
"COc1ccc(/C=C/c2ccccc2)c(OC)c1 [4u, (E)-2,4-Dimethoxystilbene]","Activity as inhibitor of TNFα-induced activation of NF-κB in the screen, in words",NF-κB [1],especially active
"COc1ccc(/C=C/c2ccc(OC)cc2)cc1 [6b, (E)-4,4′-Dimethoxystilbene]","Activity as inhibitor of TNFα-induced activation of NF-κB in the screen, in words",NF-κB [1],retained very little activity
"COc1ccc(/C=C/c2ccc(C)cc2)cc1 [6d, (E)-4′-Methoxy-4-methylstilbene]",IC50,NF-κB [1]; [8],900 ± 100 nM
"COc1ccc(/C=C/c2cc(OC)cc(OC)c2)cc1 [6f, (E)-3,4′,5-Trimethoxystilbene]","Activity as inhibitor of TNFα-induced activation of NF-κB in the screen, in words",NF-κB [1],especially active
same,IC50,"AP-1; 24 h, read-out: IC50 for inhibition of the TPA-induced activation of AP-1",3800 ± 1100 nM
"COc1ccc(/C=C/c2cccc(Cl)c2)cc1 [6h, (E)-3-Chloro-4′-methoxystilbene]",IC50,NF-κB [1]; [8],1000 ± 100 nM
"COc1ccc(/C=C/c2cccc(C)c2)cc1 [6i, (E)-4′-Methoxy-3-methylstilbene]",IC50,NF-κB [1]; [8],800 ± 200 nM
"COc1ccc(/C=C/c2ccccc2Cl)cc1 [6j, (E)-2-Chloro-4′-methoxystilbene]",IC50,NF-κB [1]; [8],1500 ± 30 nM
"COc1ccc(/C=C/c2cccc(OC)c2OC)cc1 [6o, (E)-2,3,4′-Trimethoxystilbene]","Activity as inhibitor of TNFα-induced activation of NF-κB in the screen, in words",NF-κB [1],especially active
"COc1ccc(/C=C/c2ccccc2F)cc1 [6p, (E)-2-Fluoro-4′-methoxystilbene]",outcome,"[4]; atopy/ears, 1% lotion",positive
same,outcome,"[4]; squamous cell carcinoma, 1% lotion",positive
same,Time for redness to disappear,"[4]; animal 255, severe allergies, ears and face, applied twice a day",≤ 24 h
same,"Inflammatory component of pathology (redness/itching, discomfort)","[4]; cats, 1% lotion",marked improvement
same,outcome,"[5]; K9, Pempigus, 1% lotion",positive
same,outcome,"[5]; K9, atopy, 1% lotion",positive
same,outcome,"[5]; K9, hemangiosarcoma, 1% lotion",positive
same,outcome,"[5]; K9, hot spot, 1% lotion",positive
same,outcome,"[5]; K9, peri-analfistual, 1% lotion",positive
same,Nasal planum lesion after treatment,"[5]; animal 1139, daily application, after 10 applications","the region was healing, the dried, flaking skin was gone and there was no bleeding"
same,Peri-anal fistula healing,"[5]; animal 3688, LD55 with combinations of standard forms of treatment, two weeks",nearly resulted in the fistula healing and closing
same,"Inflammatory component of pathology (redness/itching, discomfort)","[5]; dogs, 1% lotion, all treated animals except two dogs with unknown outcome",marked improvement
same,"Inhibition of LPS-induced COX-2 mRNA, in words",COX-2 mRNA,almost as effective as 4 μM resveratrol
same,IC50,NF-κB [1]; [8],150 nM
same,Ability to prevent brain inflammation and plaque accumulation,[6],effective
same,"Anti-oxidant activity in the FRAP assay, in words",[2],does not exhibit anti-oxidant activity
same,"Anti-oxidant activity in the TRAP assay, in words",[3],does not exhibit anti-oxidant activity
"COc1ccc(/C=C/c2cccc(OC)c2)cc1 [6r, (E)-3,4′-Dimethoxystilbene]",IC50,NF-κB [1]; [8],600 ± 100 nM
same,"Activity as inhibitor of TNFα-induced activation of NF-κB in the screen, in words",NF-κB [1],especially active; also recorded: highly active
"COc1ccc(/C=C/c2ccc(O)c(O)c2)cc1 [6x, (E)-3,4-Dihydroxy-4′-methoxystilbene]",IC50,NF-κB [1]; [8],600 ± 400 nM
same,"Activity as inhibitor of TNFα-induced activation of NF-κB in the screen, in words",NF-κB [1],considerably more active than resveratrol
O=C(/C=C/c1ccncc1)/C=C/c1ccncc1 [reference compound],IC50,"NF-κB [1]; TNFα-induced activation of NF-κB, Panomics reporter screening cells, read-out: NFκB IC50 (Tables 1A and 2A)",3900 ± 300 nM
same,IC50,"AP-1; AP1, TPA-induced activation of AP-1, Panomics reporter screening cells, read-out: AP-1 IC50 (Tables 1A and 2A)",8200 ± 300 nM
"Oc1ccc(/C=C/c2cc(O)cc(O)c2)cc1 [resveratrol, 3,4′,5-trihydroxystilbene, reference compound]",Inhibition of LPS-induced COX-2 mRNA,COX-2 mRNA; 4 μM,about 50%
same,Suppression of LPS-induced COX-2 mRNA,COX-2 mRNA; 20 μM,markedly suppressed
same,IC50,NF-κB [1]; [8],20000 ± 3000 nM
same,"Effect on TPA-induced AP-1 activation, in words","AP-1; 293T/AP-1-luc cells, TPA 10 ng/ml, 24 hours",activated
C(=Cc1ccccc1)c1ccccc1 [stilbene],Inhibition of TNF-induced activation of NF-κB,NF-κB [7],inactive
